# Data from patent publication US10307409B2, “Muscarinic combinations and their use for combating hypocholinergic disorders of the central nervous system” (Chase Pharmaceuticals Corporation, priority 2015, dated 2019).
# Assays:
# [1] = clinical trials, Alzheimer disease; cited from earlier work
# [2] = tested on: patients with Alzheimer disease; assay: Xanomeline 6-month double-blind, placebo-controlled, parallel group trial in Alzheimer disease patients; type: in vivo, human; conditions: in view of Mirza 2003; i.e. 225 mg/day
# Description: A close analog of tazomeline, the 3-(4-hexyloxy-1,2,5-thiadiazol-3-yl)-1-methyl-5,6-dihydro-2H-pyridine known as xanomeline and described in U.S. Pat. No. 5,043,345, the disclosure of which is incorporated herein by reference in its entirety, has been disclosed as a muscarinic acetylcholine receptor agonist with reasonable selectivity for the M1 and M4 subtypes. The efficacy of xanomeline, which stimulates muscarinic receptors in the brain and in the periphery was studied in patients with Alzheimer disease in a 6-month double-blind, placebo-controlled, parallel group trial. […] Such side effects prevented the use of doses of xanomeline that could achieve maximum anti-dementia efficacy and reflect stimulation of cholinergic receptors outside the brain.
# Dose-limiting adverse events attending the use of drugs that stimulate cholinergic transmission, such as xanomeline, appear to primarily reflect the excessive stimulation of peripheral cholinergic receptors, especially those of the muscarinic type (mAChRs), such that in both healthy volunteers and Alzheimer's patients many of these side effects have been reported for xanomeline; in the patient population this led to a discontinuation rate higher than 50% while the effects on cognition were not robust and mainly seen at the highest doses tested (Mirza2003).
# [3] = clinical study, Sramek 1995; cited from earlier work
# Male Swiss mice [4] = assay: Dose-response to xanomeline in a mouse model of diarrhea (fecal pellet count); type: in vivo; conditions: xanomeline i.p. 0.3 to 30 mg/kg
# Description: Male Swiss mice (4-6 weeks old), N=10 per treatment group were used, and treated intra-peritoneally (i.p.) with either vehicle (vehicle group) or increasing doses of xanomeline, a representative muscarinic agonist. Mice were randomly assigned to one of two experimental groups (vehicle; or increasing doses of xanomeline). Each animal was identified by its group name, cage number, series (day) of experiment, and number (1 to 10) written with permanent ink on the tail.
# Mice were placed individually in cages without any bedding materials. During the experiment the number of fecal pellets were counted at different time-points, starting one hour before the time of the administration of the test compound (T0), as outlined below: • T−1 h to T0: counting of the accumulated fecal pellets excreted. • T0: administration of the test compound, • T0 to T+2 h: counting of the accumulated fecal pellets excreted. • T+2 h to T+4 h: counting of the accumulated fecal pellets excreted.
# The total number of fecal pellets for each mouse was counted over time. An analysis of variance (ANOVA) was performed on the results. Fisher's Protected Least Significant Difference was used for pairwise comparisons; p values ≤0.05 were considered significant. Grubbs' test (http://www.graphpad.com/quickcs/Grubbs1.cfm) was used to detect outliers for each parameter in each experimental group.
# [5] = tested on: patients with Alzheimer disease; conditions: cited from earlier work
# Male Swiss mice [6] = assay: T-maze continuous alternation task (T-CAT) with oxybutynin and xanomeline; type: in vivo; conditions: i.p. oxybutynin pretreatment 30 min before xanomeline
# Description: The T-maze continuous alternation task (T-CAT) is useful as model for studying compounds with cognitive enhancing properties. The T-maze consists of 2 choice arms and 1 start arm mounted to a square center. Manual doors are provided to close specific arms during the force choice alternation task.
# Male Swiss mice (4-6 weeks old), N=10 per treatment group were used, and were pretreated with: • Oxybutynin at the dose that blocked fecal pellet excretion in Study 2 of Example 1.
# Mice were randomly assigned to one of the different experimental treatment groups. Each animal was identified by its group name, cage number, series (day) of experiment, and number (1 to 10) written with permanent ink on the tail.
# The T-maze apparatus is made of gray Plexiglas with a main stem (55 cm long×10 cm wide×20 cm high) and two arms (30 cm long×10 cm wide×20 cm high) positioned at 90 degree angle relative to the main stem. A start box (15 cm long×10 cm wide) is separated from the main stem by a guillotine door. […]
# The percentage of alternation over the 14 free-choice trials was determined for each mouse and was used as an index of working memory performance. […]
# Analysis of variance (ANOVA) was performed on the results. […] The drug-induced improvement of memory was calculated by setting the respective response of the saline/vehicle as 100% and that of the test group as 0% reversion. […]
# Male Swiss mice [7] = assay: Antagonism of xanomeline-induced diarrhea in mice by oxybutynin (fecal pellet count); type: in vivo; conditions: i.p. oxybutynin 0.3 to 30 mg/kg, 30 min before xanomeline 30 mg/kg
# Experimental: Male Swiss mice (4-6 weeks old), N=10 per treatment group were used. Animals were pretreated with i.p. oxybutynin (a representative peripheral muscarinic receptor antagonist) or vehicle; 30 minutes later animals were treated with xanomeline at a dose of 30 mg/kg that caused diarrhea (as determined in Experiment 1). The dose of oxybutynin ordinarily ranged from 0.3 to 30 mg/kg.
# Mice were placed individually in cages without any bedding materials. During the experiment the number of fecal pellets was counted at different time-points as outlined below: • T−1 h to T0: counting of the accumulated fecal pellets excreted. • T0: administration of oxybutinin. • T30 min: administration of vehicle or xanomeline. • T 30 min to T 2.5 h: counting of accumulated fecal pellets excreted. • T+2.5 h to T+4.5 h: counting of accumulated fecal pellets excreted.
# The total number of fecal pellets for each mouse was counted over time. An analysis of variance (ANOVA) was performed on the results. Fisher's Protected Least Significant Difference was used for pairwise comparisons. The p value ≤0.05 were considered significant. Grubbs' test (http//www atgraphpad.com/quickcalcs/Grubbs1.cfm) was used to detect outliers for each parameter in each experimental group.
# [8] = transdermal [14C]oxybutynin, rats; cited from earlier work
# primate = primate study, domperidone administered with BuTAC; cited from earlier work
compound,measurement,setting,value
"CO/N=C/C1=CCCN(C)C1 [milameline, (E)-N-methoxy-1-(1-methyl-1,2,5,6-tetrahydropyridin-3-yl)methanimine]",maximum tolerated dose,[1],2 mg four times per day
"CCCCCCOc1nsnc1C1=CCCN(C)C1 [xanomeline, 3-(4-hexyloxy-1,2,5-thiadiazol-3-yl)-1-methyl-5,6-dihydro-2H-pyridine]",maximum tolerated dose as considered in the context of the present invention,[2],75 mg three times per day
same,MTD,[3],100 mg three times a day
same,diarrhea (fecal pellets excreted),Male Swiss mice [4],dose-dependently causes diarrhea
same,patients who discontinued treatment,"[5]; 75 mg xanomeline orally three times daily, 6-month study, mainly adverse events, predominantly gastrointestinal",59%
same,cognitive and behavioral symptoms of Alzheimer disease compared to placebo,[5]; 6-month trial (Bodick 1997; Shekhar 2008),significantly improve cognitive and behavioral symptoms
same,"side effects (bradycardia, gastro-intestinal distress, excessive salivation, sweating)",[5]; 6-month trial,dose-dependent unacceptable side effects
same,discontinuation rate in the patient population,[5]; Alzheimer's patients (Mirza 2003),higher than 50%
"CCN(CC)CC#CCOC(=O)C(O)(c1ccccc1)C1CCCCC1 (stereo not drawn) [oxybutynin, 4-diethylaminobut-2-ynyl 2-cyclohexyl-2-hydroxy-2-phenylethanoate]",ability to perform the T-maze test after oxybutynin pretreatment,Male Swiss mice [6],restored the animals' ability to perform the T-maze test
same,antagonism of xanomeline-induced diarrhea,Male Swiss mice [7],dose-dependently antagonized the diarrhea induced by xanomeline
same,brain penetration of radiolabel,[8],presence of radiolabel in the brain
"O=c1[nH]c2ccccc2n1CCCN1CCC(n2c(=O)[nH]c3cc(Cl)ccc32)CC1 [domperidone, 5-chloro-1-(1-[3-(2-oxo-2,3-dihydro-1H-benzo[d]imidazol-1-yl)propyl]piperidin-4-yl)-1H-benzo[d]imidazol-2(3H)-one]",effect on BuTAC-induced vomiting,primate,mitigated
